{"source": "patent US7419657B2", "about": "“Treatment of atherosclerotic disorders” (priority 2001, dated 2008)", "key": {"Chlamydia": {"test_system": "Chlamydia", "type": "biochemical, Chlamydia pneumoniae or Chlamydia Psittaci"}, "anti-Chlamydia abzymes [1]": {"test_system": "anti-Chlamydia abzymes", "type": "biochemical, human", "parameters": "key to In-vitro Inhibition: + = inhibition; − = no inhibition"}, "lesion IgG": {"test_system": "lesion IgG", "test": "LDL peroxidation by lesion IgG with tested antioxidants", "type": "biochemical, human"}, "anti-Chlamydia abzymes [2]": {"test_system": "anti-Chlamydia abzymes", "test": "Abzyme activity in angina patients reporting aspirin intake (Example 10)", "type": "in vivo, human", "conditions": "for abzyme activity, + aspirin: individuals"}, "anti-Chlamydia abzymes [3]": {"test_system": "anti-Chlamydia abzymes", "test": "Anti-abzyme therapy trial in ischaemic heart disease: serum abzyme activity", "type": "in vivo, human"}, "anti-Chlamydia abzymes [4]": {"test_system": "anti-Chlamydia abzymes", "test": "Serum abzyme activity in patients taking aspirin (Example 6)", "type": "in vivo, human"}, "[5]": {"conditions": "LDL 480 μg of protein, +0.1 M antioxidant, control 0.49 ± 0.023"}, "[6]": {"conditions": "10 μM of each Me2+-binding agent"}, "[7]": {"conditions": "10 μM of each Me2+-binding agent, control 24.3"}, "[8]": {"conditions": "patient F, Silent Myocardial Ischaemia"}}, "note": "“And” between values parts separate entries of the source, which are not always exact repeats. Equal values may be shown once. Where a name gives a salt, the structure may show the parent alone. Read-outs that look alike come from different tables or passages of the source.", "data": [{"compound": "CCCCCCCCCCCCOS(=O)(=O)[O-].[Na+]", "note": "[SDS]", "values": [{"measurement": "lipid oxidising reaction in the test system", "setting": "Chlamydia", "value": "no lipid oxidising reaction"}]}, {"compound": "C=O", "note": "[formalin]", "values": [{"measurement": "lipid oxidising reaction in the test system", "setting": "Chlamydia", "value": "no lipid oxidising reaction"}]}, {"compound": "CC(C)NCC(O)COc1cccc2ccccc12", "note": "(stereo not drawn) [Propranolol Hydrochloride]", "values": [{"measurement": "Anti-Abzyme activity", "setting": "anti-Chlamydia abzymes [1]; Hydrochloride", "value": "21.3 μM MDA/ml and 18.3 μM MDA/ml"}]}, {"compound": "O=[N+]([O-])O[C@H]1CO[C@H]2[C@@H]1OC[C@H]2O[N+](=O)[O-]", "note": "[Isosorbide Dinitrate]", "values": [{"measurement": "Anti-Abzyme activity", "setting": "anti-Chlamydia abzymes [1]; drug 42 μM, control 21.7", "value": 0, "unit": "μM MDA/ml"}, {"measurement": "Anti-Abzyme activity", "setting": "anti-Chlamydia abzymes [1]; drug 211 μM, control 21.7", "value": 0, "unit": "μM MDA/ml"}]}, {"compound": "O=C(O)c1ccccc1", "note": "[benzole acid]", "values": [{"measurement": "Level of MDA production by 0.82 μg of lesion IgG", "setting": "lesion IgG; [5]", "value": 0, "unit": "µM"}]}, {"compound": "O=C(O)c1ccccn1", "note": "[Picolinic acid]", "values": [{"measurement": "In-vitro Inhibition", "setting": "anti-Chlamydia abzymes [1]", "value": "+"}, {"measurement": "Result (inhibition of anti-Chlamydia abzymes)", "setting": "anti-Chlamydia abzymes [1]; [6]", "value": "Positive"}, {"measurement": "Lipid oxidising activity of anti-Chlamydia abzymes", "setting": "anti-Chlamydia abzymes [1]; [7]", "value": 0, "unit": "μM MDA/ml"}]}, {"compound": "CC(=O)Oc1ccccc1C(=O)O", "note": "[Aspirin, acetylsalicylic acid]", "values": [{"measurement": "abzyme activity, + aspirin", "setting": "anti-Chlamydia abzymes [2]; stable angina class I", "value": "5 and 45 and 0 (3×) and 10"}, {"measurement": "abzyme activity, + aspirin", "setting": "anti-Chlamydia abzymes [2]; stable angina class II", "value": "5 (4×) and 10 (2×) and 0 (4×) and 25 and 22.5 and 3.3 and 16.7 and 30"}, {"measurement": "abzyme activity, + aspirin", "setting": "anti-Chlamydia abzymes [2]; stable angina class III", "value": "0 (3×) and 45 and 5 and 35 and 15 and 30 and 105 and 20"}, {"measurement": "abzyme activity, + aspirin", "setting": "anti-Chlamydia abzymes [2]; unstable angina (IV)", "value": "130 and 70 and 0 and 37 and 90 and 100 and 180"}, {"measurement": "individuals positive for abzymes, + aspirin", "setting": "anti-Chlamydia abzymes [2]; stable angina class I, 1/6", "value": 17, "unit": "%"}, {"measurement": "abzyme activity, + aspirin, group mean", "setting": "anti-Chlamydia abzymes [2]; stable angina class I, n = 6, without aspirin 30.0", "value": 10.0}, {"measurement": "individuals positive for abzymes, + aspirin", "setting": "anti-Chlamydia abzymes [2]; stable angina class II, 4/15", "value": 27, "unit": "%"}, {"measurement": "abzyme activity, + aspirin, group mean", "setting": "anti-Chlamydia abzymes [2]; stable angina class II, n = 15, without aspirin 32.2", "value": 9.2}, {"measurement": "individuals positive for abzymes, + aspirin", "setting": "anti-Chlamydia abzymes [2]; stable angina class III, 6/10", "value": 60, "unit": "%"}, {"measurement": "abzyme activity, + aspirin, group mean", "setting": "anti-Chlamydia abzymes [2]; stable angina class III, n = 10, without aspirin 56.0", "value": 25.5}, {"measurement": "individuals positive for abzymes, + aspirin", "setting": "anti-Chlamydia abzymes [2]; unstable angina (IV), 6/7", "value": 86, "unit": "%"}, {"measurement": "abzyme activity, + aspirin, group mean", "setting": "anti-Chlamydia abzymes [2]; unstable angina (IV), n = 7, without aspirin 119", "value": 86.7}, {"measurement": "In-vitro Inhibition", "setting": "anti-Chlamydia abzymes [1]", "value": "+"}, {"measurement": "Result (inhibition of anti-Chlamydia abzymes)", "setting": "anti-Chlamydia abzymes [1]; [6]", "value": "Positive"}, {"measurement": "Lipid oxidising activity of anti-Chlamydia abzymes", "setting": "anti-Chlamydia abzymes [1]; [7]", "value": 6.2, "unit": "μM MDA/ml"}, {"measurement": "Anti-Chlamydia abzyme activity, 60 days after the start of treatment", "setting": "anti-Chlamydia abzymes [3]; Therapy Group D individual IHD patients, aspirin 250 mg daily, before 103, 253", "value": "63 μM MDA/ml and 103 μM MDA/ml"}, {"measurement": "Anti-Chlamydia abzyme activity, 60 days after the start of treatment", "setting": "anti-Chlamydia abzymes [3]; Therapy Group D mean, before treatment 178", "value": 83.2, "unit": "μM MDA/ml"}, {"measurement": "Level of activity of anti-Chlamydia abzymes, 7 days after starting to take 250 mg of aspirin daily", "setting": "anti-Chlamydia abzymes [4]; individual patients with CHD, before aspirin 45, 100, 45", "value": "undetectably low level and 20 μM MDA/ml and 0 μM MDA/ml"}, {"measurement": "inhibition of the abzyme activity", "setting": "anti-Chlamydia abzymes [4]; one CHD patient, 250 mg aspirin daily, after a week", "value": 5, "unit": "fold"}, {"measurement": "Level of activity of anti-Chlamydia abzymes, 7 days after re-starting to take 250 mg aspirin daily", "setting": "anti-Chlamydia abzymes [4]; [8]", "value": 20, "unit": "μM MDA/ml"}, {"measurement": "Level of activity of anti-Chlamydia abzymes, after stopping taking aspirin for 7 days", "setting": "anti-Chlamydia abzymes [4]; [8]", "value": 65, "unit": "μM MDA/ml"}, {"measurement": "Level of activity of anti-Chlamydia abzymes, aspirin intake 250 mg daily", "setting": "anti-Chlamydia abzymes [4]; patient F, Silent Myocardial Ischaemia, regular intake", "value": 10, "unit": "μM MDA/ml"}]}, {"compound": "CCC[C@@H]1C[C@@H](C(=O)N[C@@H]([C@H]2O[C@H](SC)[C@H](O)[C@@H](O)[C@H]2O)[C@@H](C)O)N(C)C1", "note": "[Lincomycin Hydrochloride]", "values": [{"measurement": "Anti-Abzyme activity", "setting": "anti-Chlamydia abzymes [1]; drug 6.5 μM, control 21.7", "value": 28.5, "unit": "μM MDA/ml"}, {"measurement": "Anti-Abzyme activity", "setting": "anti-Chlamydia abzymes [1]; drug 13 μM, control 21.7", "value": 30.3, "unit": "μM MDA/ml"}]}, {"compound": "O=C[O-].[Na+]", "note": "[sodium formate]", "values": [{"measurement": "Level of MDA production by 0.82 μg of lesion IgG", "setting": "lesion IgG; [5]", "value": 0, "unit": "µM"}]}, {"compound": "Nadroparin Calcium", "values": [{"measurement": "Anti-Abzyme activity", "setting": "anti-Chlamydia abzymes [1]; drug 95 UI, control 21.7", "value": 20.5, "unit": "μM MDA/ml"}, {"measurement": "Anti-Abzyme activity", "setting": "anti-Chlamydia abzymes [1]; drug 465 UI, control 21.7", "value": 12.8, "unit": "μM MDA/ml"}]}, {"compound": "CC(C)(S)[C@@H](N)C(=O)O", "note": "[Penicillamine]", "values": [{"measurement": "In-vitro Inhibition", "setting": "anti-Chlamydia abzymes [1]", "value": "+"}, {"measurement": "Result (inhibition of anti-Chlamydia abzymes)", "setting": "anti-Chlamydia abzymes [1]; [6]", "value": "Positive"}, {"measurement": "Lipid oxidising activity of anti-Chlamydia abzymes", "setting": "anti-Chlamydia abzymes [1]; [7]", "value": 0, "unit": "μM MDA/ml"}]}, {"compound": "N.N.O=S(=O)(O)O", "note": "[ammonium sulphate]", "values": [{"measurement": "lipid oxidising reaction in the test system", "setting": "Chlamydia", "value": "no lipid oxidising reaction"}]}, {"compound": "Triton X-100", "values": [{"measurement": "development of lipid oxidation reaction", "setting": "Chlamydia", "value": "completely abrogated"}, {"measurement": "oxidation of the lipids in the bacteria by the extracted abzymes", "setting": "Chlamydia", "value": "abolished"}]}, {"compound": "O=[N+]([O-])OCC(CO[N+](=O)[O-])O[N+](=O)[O-]", "note": "[Glyceryl Trinitrate]", "values": [{"measurement": "Anti-Abzyme activity", "setting": "anti-Chlamydia abzymes [1]; drug 4.4 μM, control 21.7", "value": 0, "unit": "μM MDA/ml"}, {"measurement": "Anti-Abzyme activity", "setting": "anti-Chlamydia abzymes [1]; drug 22 μM, control 21.7", "value": 0, "unit": "μM MDA/ml"}, {"measurement": "Anti-Abzyme activity", "setting": "anti-Chlamydia abzymes [1]; drug 44 μM, control 21.7", "value": 0, "unit": "μM MDA/ml"}, {"measurement": "Anti-Abzyme activity", "setting": "anti-Chlamydia abzymes [1]; drug 220 μM, control 21.7", "value": 0, "unit": "μM MDA/ml"}]}, {"compound": "Heparin", "values": [{"measurement": "Anti-Abzyme activity", "setting": "anti-Chlamydia abzymes [1]; drug 0.1 mg/ml, control 21.7", "value": 19.7, "unit": "μM MDA/ml"}]}, {"compound": "Cc1c(C)c2c(c(C)c1O)CC[C@@](C)(CCC[C@H](C)CCC[C@H](C)CCCC(C)C)O2", "note": "[α-Tocopherol]", "values": [{"measurement": "Lipid oxidising activity of anti-Chlamydia abzymes", "setting": "anti-Chlamydia abzymes [1]; in DMSO, 1 μM, control 61", "value": 15, "unit": "μM MDA/ml"}, {"measurement": "Lipid oxidising activity of anti-Chlamydia abzymes", "setting": "anti-Chlamydia abzymes [1]; in DMSO, 10 μM, control 61", "value": 0, "unit": "μM MDA/ml"}]}, {"compound": "Igepal CA-630", "values": [{"measurement": "development of lipid oxidation reaction", "setting": "Chlamydia", "value": "completely abrogated"}, {"measurement": "oxidation of the lipids in the bacteria by the extracted abzymes", "setting": "Chlamydia", "value": "abolished"}]}, {"compound": "O=C1O[C@H]([C@@H](O)CO)C(O)=C1O", "note": "[ascorbic acid]", "values": [{"measurement": "Level of MDA production by 0.82 μg of lesion IgG", "setting": "lesion IgG", "value": 0, "unit": "µM"}]}, {"compound": "C[S+](C)[O-]", "note": "[DMSO]", "values": [{"measurement": "Level of MDA production by 0.82 μg of lesion IgG", "setting": "lesion IgG; LDL 480 μg of protein, +1% antioxidant, control 0.49 ± 0.023", "value": 0, "unit": "µM"}, {"measurement": "development of lipid oxidation reaction", "setting": "Chlamydia", "value": "completely abrogated"}]}, {"compound": "O=C(O)CN(CCN(CC(=O)O)CC(=O)O)CCN(CC(=O)O)CC(=O)O", "note": "[DTPA]", "values": [{"measurement": "In-vitro Inhibition", "setting": "anti-Chlamydia abzymes [1]", "value": "−"}, {"measurement": "Result (inhibition of anti-Chlamydia abzymes)", "setting": "anti-Chlamydia abzymes [1]; [6]", "value": "Negative"}, {"measurement": "Lipid oxidising activity of anti-Chlamydia abzymes", "setting": "anti-Chlamydia abzymes [1]; [7]", "value": 45.2, "unit": "μM MDA/ml"}]}]}
